Test results from patent US11247994B2, “6-dithio-substituted-2′-deoxyguanosine compound, preparation method thereof and use thereof” (ZHEJIANG UNIVERSITY, priority 2018, dated 2022).

Legend:
[1] = test system: human colon cancer cell line HCT116 subcutaneous transplanted tumor; assay: Tumor-bearing test in nude mice, HCT116 subcutaneous transplanted tumor (tumor volume, TUNEL); format: in vivo; conditions: HCT116 model
Source text: Tumor-Bearing Test in Nude Mice—Inhibitory Effect of 6-Dithio-Substituted-2′-Deoxyguanosine Derivatives on the Growth of Subcutaneous Transplanted Tumor Tissue in Nude Mice
1) Tumor-Bearing Mouse Model of Human Colon Cancer Cell Line HCT116
(§1) We took human colon cancer cell line HCT116 as the research object, and established a subcutaneous transplanted tumor model of human colon cancer in 32 immunodeficient nude mice. The 24th generation HCT116 cells in logarithmic growth phase were digested with pancreatin to prepare a single-cell suspension, and 1×10^7 cells were inoculated subcutaneously in the right armpit of male nude mice about 5 weeks old. After inoculation, cyclophosphamide (100 mg/kg) was injected intraperitoneally for two consecutive days. […] On the 20th day after colon cancer cell HCT116 was implanted subcutaneously, nude mice were divided into 7 groups by a random number table method, including a test drug group, a positive control group and a blank control group. Specifically, group A: the compound A was administrated; Group B: the compound B was administrated; Group C: the compound C was administrated; Group D: the compound D was administrated; Group E: the compound 6-thio-DG was administrated; Group F: the compound PX-12 was administrated; Group G: blank group, without administration of any compound. Except group C with 3 rats and group G with 4 rats, all other 5 groups had 5 rats, they mice were labeled and injected by tail vein once every two days for 24 days, 12 times, with the dose of compound A being 2 mg/kg for the first 8 times and 10 mg/kg for the last 4 times, and the dosages of other drugs being the same molar weights. The tumor volume was calculated by taking the length of the tumor as the longest diameter and the width as the corresponding vertical diameter, and the tumor volume V=(length×width^2) mm^3/2. 48 hours after the last treatment, blood was taken from the eyes, and then the animals were killed. Blood was centrifuged to get the supernatant, and then blood biochemical analysis was performed. Paraffin embedded sections of fixed tissues were stained with HE. The tumor mass in a frozen tissue was sectioned in a frozen state, and then stained by DAPI and TUNEL to judge the apoptosis of the tumor tissue in nude mice.

[2] = Blood biochemical analysis and HE staining of tissues in HCT116 tumor-bearing nude mice; format: in vivo; conditions: tail vein once every two days, 12 times, blood 48 hours after the last treatment
Description: as §1

[3] = A375 tumor-bearing mouse model, body weight, toxicity and blood biochemical indexes; format: in vivo; conditions: compound D 10 mg/kg
Description: 2) Human Melanoma Cell A375 Tumor-Bearing Mouse Model
We further studied the inhibitory effect of the compound D on human malignant melanoma by using A375 tumor-bearing mouse model. The method was basically the same as above. Dacarbazine (DTIC) is the first-line drug for melanoma. The designed administration groups were: compound D 10 mg/kg group; 6-thio-dG+PX12 combined drug group (the dose is equivalent to twice the molar amount of the compound D); DTIC 20.4 mg/kg group (the dose is equivalent to 4 times the molar amount of the compound D) and blank solvent group.

NCM460 = assay: MTT assay, cell growth inhibition, NCM460; format: cell-based; conditions: Homo sapiens, 48 hours, read-out: Tumor cell growth inhibition IC50, NCM460
Source text: (§2) MTT Assay—Inhibitory Effect of 6-dithio-substituted-2′-deoxyguanosine Derivatives on Tumor Cell Growth
(§3) We measured the tumor cell growth inhibitory activity of candidate compounds by MTT assay. Human tumor cells in logarithmic growth phase were digested with 0.25% pancreatin for a certain time, centrifuged, re-suspended and counted with a blood cell counting plate to prepare a cell suspension, and the cell suspension was adjusted to 1.0×10^4-1×10^5 cells/mL. The cell suspension was inoculated into a 96-well culture plate, 100 μL per well, and cultured in an incubator with saturated humidity, 37° C. and 5% CO2 for 24 hours until the cells completely adhered to the wall. The test compound was diluted to the required concentration with a complete medium, the complete medium of the 96-well culture plate inoculated with human tumor cells was sucked out, a medicament-containing medium was added, 100 μL per well, the final concentration of DMSO was less than 0.1%, and the culture plate was put in an incubator for 48 hours. 10 μl of MTT was added to each well of the 96-well plate, and the culture was continued for 4 h. The culture was stopped and the culture solution in the well was carefully sucked off. 150 μL DMSO was added to each well, and shaken at a low speed for 10 min on a shaking table, so that the crystal was fully dissolved. The absorbance of each well was measured at OD 570 nm of an enzyme-linked immunosorbent assay instrument. At the same time, zeroing wells (the culture medium, MTT, dimethyl sulfoxide) and control wells (cells, a drug dissolution medium with the same concentration, a culture solution, MTT, dimethyl sulfoxide) were set up, and the cell growth inhibitory activity was calculated with the corresponding solvents as the control. 3-6 multiple wells in each group were set up with repetition of several times. Cell viability of control=(Adrug group−Azeroing well)/(Acontrol well−Azeroing well)*100%. Drawing was drawn, the data were fitted into a concentration response curve with a variable slope, and IC50 value was calculated from the curve.

[4] = test system: human breast cancer cells MCF7; assay: MTT assay, tumor cell growth inhibition, MCF7; format: cell-based; conditions: 48 hours
Source text: as §2, §3

[5] = test system: human liver cancer cells HepG2; assay: MTT assay, tumor cell growth inhibition, HepG2; format: cell-based; conditions: 48 hours
Source text: as §2, §3

[6] = test system: human colon cancer cells HT29; assay: MTT assay, tumor cell growth inhibition, HT29; format: cell-based; conditions: HT-29, 48 hours
Source text: as §2, §3

CC(C)SSc1nc(N)nc2c1ncn2[C@H]1C[C@H](O)[C@@H](CO)O1 [D, 6-(isopropyldithio)-2′-deoxyguanosine]
Extent of apoptosis in tumor tissue (TUNEL staining, rank order) ([1]; frozen tumor sections, DAPI and TUNEL, G group = blank): D group>A group≈B group≈E group (6-thio-dG group)>C group>F group (PX-12 group)>G group (KB group)
Inhibitory effect on the growth of subcutaneous transplanted tumor tissue in nude mice (rank order, from slope of tumor volume) ([1]; tail vein once every two days for 24 days, compound A 2 mg/kg first 8 times, 10 mg/kg last 4 times, others equimolar, KB = blank): D>B≈A≈6-thio-dG>PX-12>C>KB
Ability to inhibit the growth of transplanted tumor tissue compared with positive controls ([1]; tail vein once every two days for 24 days, equimolar doses): stronger than that of positive control 6-thio-dG and PX-12
Alanine aminotransferase [2]: 28.2 U/L
Albumin [2]: 25.0 g/L
Alkaline phosphatase [2]: 31.5 U/L
Aspartate aminotransferase [2]: 122.2 U/L
BUN [2]: 8.80 mmol/L
Chloride ion [2]: 115.3 mmol/L
Creatine kinase [2]: 1597 U/L
Creatinine [2]: -3.0 µmol/L
Glucose [2]: 3.51 mmol/L
Potassium ion [2]: 6.43 mmol/L
Sodium ion [2]: 157.5 mmol/L
Total bilirubin [2]: -1.00 µmol/L
Total cholesterol [2]: 3.21 mmol/L
Total protein [2]: 54.2 g/L
Triglyceride [2]: 0.70 mmol/L
Body weight [3]: after 13 days of administration, the body weight was significantly higher than that of DITC group, 6-thio-dG and PX-12 combination group
Toxicity compared with 6-thio-dG and PX-12 combination ([3]; combination at twice the molar amount): lower toxicity than the combined drug group
IC50 (NCM460): > 1000 µM
IC50 [4]: 41.3 µM
IC50 [5]: < 10 µM
IC50 [6]: 4.24 µM
